Converted amounts (≈) assume the structure as drawn. Like-named read-outs stand apart in the source and are kept apart here. Each block holds one compound with its values, some of them ahead of it.
Columns and labels:
Assay type in all cases: physicochemical
[1] = Characterization of the resulting solid form (hygroscopicity)
[2] = Aqueous solubility determination via HPLC calibration curve
Method: The solubility determination was made as follows. Each salt suspension was made by adding 50-100 mg of material into a minimum amount of water (0.1-0.2 mL to start). Based on solubility, additional material was added to obtain a salt suspension. The suspension was then filtered through a 0.25 μm filter and the filtrate was further diluted with water and the salt solution was analysed by HPLC. The concentration of the salt solution injected was calculated with the linear equation y=mx+c derived from the calibration curves, with Y referring to the HPLC response obtained for the salt solution injected.

[3] = Competitive slurries (cross-seeding) of free base Forms A and B, solids analysed by XRPD; settings: for XRPD form after competitive slurry: Forms A and B equal amounts, 72 h
Method: This set of experiments was performed using various solvents and solvent combinations. Cross-seeding experiments were performed over a range of temperatures to help define the relationship between Forms A and B.
Procedure: Twenty-one cross-seeding experiments were performed by adding equal amounts of Forms A and B (weight/weight, total of 25 mg). The mixture was slurried in the given solvent/system (ca. 5 vol. 125 μl) at room temperature, then matured at a specific temperature (5° C., 25° C. or 50° C.) for 72 h. The solids were filtered, air dried and analysed by XRPD. After two days, samples 3 and 15 were completely dry and additional portions of their corresponding solvents were added, (250 μl was added to sample 3 and 248.6 μl was added to sample 15). Solids obtained were characterised by XRPD.

[4] = water, thermodynamic from solid, aqueous (water), filtered suspension, HPLC, read-out: Solubility
[5] = aqueous (water), filtered suspension, HPLC

SMILES: CC(C)(O)c1nc2ccc(Cl)cc2cc1N.CS(=O)(=O)O [Compound 1]
Hygroscopicity ([1]; Form B): slightly hygroscopic | solubility [2, 4]: > 1500 mg/mL | Aqueous solubility compared with the other compounds ([2]; water, comparison in words): highest solubility

SMILES: CC(C)(O)c1nc2ccc(Cl)cc2cc1N [Compound 5]
Hygroscopicity ([1]; Form A): slightly hygroscopic | solubility [2, 5]: 73 mg/mL (≈ 308 mM)

SMILES: CC(C)(O)c1nc2ccc(Cl)cc2cc1N.O=C(O)C(=O)O [Compound 6]
solubility ([2]; water, thermodynamic from solid, Solubility): 15.6 mg/mL

SMILES: CC(C)(O)c1nc2ccc(Cl)cc2cc1N [Compound A]
Hygroscopicity ([1]; Form A): non-hygroscopic | Hygroscopicity ([1]; Form B): slightly hygroscopic | Transition temperature between Form A and Form B [3]: below 50 °C | XRPD form after competitive slurry ([3]; Acetone:H2O (10%), 5° C.): Form B | XRPD form after competitive slurry ([3]; Acetone:H2O (10%), 25° C.): Form B | XRPD form after competitive slurry ([3]; Acetone:H2O (10%), 50° C.): Forms A & B | XRPD form after competitive slurry ([3]; Cyclohexane, 5° C.): Forms A & B | XRPD form after competitive slurry ([3]; Cyclohexane, 25° C.): Form B | XRPD form after competitive slurry ([3]; Cyclohexane, 50° C.): Form B | XRPD form after competitive slurry ([3]; EtOAc:Heptane, 5° C.): Form B | XRPD form after competitive slurry ([3]; EtOAc:Heptane, 25° C.): Form B | XRPD form after competitive slurry ([3]; EtOAc:Heptane, 50° C.): Form B | XRPD form after competitive slurry ([3]; Heptane, 5° C.): Form B | XRPD form after competitive slurry ([3]; Heptane, 25° C.): Form B | XRPD form after competitive slurry ([3]; Heptane, 50° C., additional solvent added): Form B | XRPD form after competitive slurry ([3]; Toluene, 5° C.): Form B | XRPD form after competitive slurry ([3]; Toluene, 25° C.): Form B | XRPD form after competitive slurry ([3]; Toluene, 50° C.): Form A | XRPD form after competitive slurry ([3]; Toluene:Cyclohexane, 5° C.): Form B | XRPD form after competitive slurry ([3]; Toluene:Cyclohexane, 25° C.): Form B | XRPD form after competitive slurry ([3]; Toluene:Cyclohexane, 50° C.): Form B | XRPD form after competitive slurry ([3]; Toluene:Heptane, 5° C.): Form B | XRPD form after competitive slurry ([3]; Toluene:Heptane, 25° C.): Form B | XRPD form after competitive slurry ([3]; Toluene:Heptane, 50° C., additional solvent added): Form B | Most stable form in competitive slurries ([3]; two anhydrous forms (Form A & Form B), under the investigated conditions): Form B | solubility [2, 5]: <0.1 mg/mL

Further lines, results first:

Hygroscopicity ([1]; Form A): slightly hygroscopic
SMILES: CC(C)(O)c1nc2ccc(Cl)cc2cc1N.O=S(=O)(O)c1ccccc1 [Compound 2]

Hygroscopicity ([1]; Form A): slightly hygroscopic | solubility ([2]; thermodynamic from solid, aqueous (water), filtered suspension, HPLC, read-out: Solubility): 421 mg/mL
SMILES: CC(C)(O)c1nc2ccc(Cl)cc2cc1N.O=S(=O)(O)O [Compound 3]

solubility [2, 4]: 11 mg/mL
SMILES: CC(C)(O)c1nc2ccc(Cl)cc2cc1N.Cc1ccc(S(=O)(=O)O)cc1 [Compound 4]

Hygroscopicity ([1]; Form A): slightly hygroscopic | solubility [2, 4]: > 500 mg/mL
SMILES: CC(C)(O)c1nc2ccc(Cl)cc2cc1N.O=P(O)(O)O [Compound 7]

solubility [2, 5]: 35 mg/mL (≈ 148 mM)
SMILES: CC(C)(O)c1nc2ccc(Cl)cc2cc1N [Compound 8]

Source: patent publication US10414732B2, “Polymorphic compounds and uses thereof” (priority 2017, dated 2019)
